In one data set the target is human mPGES1 (Homo sapiens (Human), UniProt O14684). Briefly: Inhibition activity for human mPGES1 (enzyme assay, PGE2 HTRF). Format: biochemical. The conditions noted are these: membrane protein from HEK-293 F transfected with human mPGES1.
Data set [1] relates to secretion of PGE2 by A549 cells stimulated with IL-1β. Description: Inhibition of the secretion of PGE2 by A549 cells stimulated with IL-1β. Format: cell-based. The conditions noted are these: Homo sapiens, A549; IL-1β 0.2 ng/mL, 24 hours. An outline of the steps: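 A549 cells pretreated 30 min at 37° C with compound (seven concentrations, 0.011–11111 nM) before IL-1β at 0.2 ng/mL final, then 24 h at 37° C.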

A short description of data set [2]: Pharmacokinetics assay in rats. The conditions noted are these: both sexes, Sprague-Dawley, rat, plasma, po, SD rats, intragastric, 5 mg/kg. Format: in vivo. Here is the method: Rats were used as test animals. The drug concentration in plasma at different time points was determined by LC/MS/MS after administration of the compounds of Example 8, Example 11, Example 14, Example 17, Example 20, Example 27, Example 33, Example 35, Example 36, Example 37 and Example 48 to rats. The pharmacokinetic behavior of the present compounds was studied and evaluated in rats.
Forty four (44) healthy adult Sprague-Dawley (SD) rats, half male and half female, which were purchased from SINO-BRITSH SIPPR/BK LAB. ANIMAL LTD., CO, with Certificate No.: SCXK (Shanghai) 2008-0016, were divided into 11 groups, with 4 rats in each group.
The appropriate amount of test compounds was weighed, and mixed with 25 μL Tween 80 and Labrasol to prepare a 0.6 mg/mL suspension by ultrasonication.
After an overnight fast, 44 SD rats, half male and half female, were divided into 11 groups, and administered intragastrically at a dose of 5.0 mg/kg and an administration volume of 10 mL/kg.
Blood (0.1 mL) was sampled from the orbital sinus before administration and 0.5 h, 1.0 h, 2.0 h, 4.0 h, 6.0 h, 8.0 h, 11.0 h, and 24.0 h after administration. The samples were stored in EDTA anticoagulation tubes, and centrifuged for 5 minutes at 3,500 rpm to separate the blood plasma. The plasma samples were stored at −20° C. The rats were fed 2 hours after administration.
The plasma concentration of the test compounds in rat after intragastric administration was determined by LC-MS/MS. The linearity of the method is 5.00-2000 ng/mL and 1.00-2000 ng/ml, and the minimum of quantification is 5.00 ng/mL and 1.00 ng/mL.
Plasma samples were analyzed after pretreatment by protein precipitation.

human mPGES1, sequence (O14684 whole entry): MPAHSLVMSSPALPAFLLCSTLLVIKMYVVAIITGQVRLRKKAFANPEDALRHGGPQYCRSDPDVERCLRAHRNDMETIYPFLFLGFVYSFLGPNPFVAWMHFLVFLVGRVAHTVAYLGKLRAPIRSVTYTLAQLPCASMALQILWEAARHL

`CC(C)(F)C(=O)NCc1cnc(C(F)F)c(C(=O)Nc2ccc3oc(-c4cccc(C(F)(F)F)c4)cc3c2)c1` [Example 48, 2-(Difluoromethyl)-5-(((2-fluoro-2-methyl-propanoyl)amino)methyl)-N-(2-(3-(trifluoromethyl)phenyl)benzofuran-5-yl)nicotinamide]: the IC50 is 3.58 nM against human mPGES1 and 14.1 nM in data set [1]. The Vd/F in data set [2] (read-out: Apparent Distribution Volume Vz/F) turned out to be 7.53 ± 1.69 L/kg. For the same molecule, the AUC in data set [2] (read-out: Area Under Curve AUC) stood at 2.26 ± 0.767 µg·h/mL. Moreover, in data set [2] (read-out: Clearance CLz/F), the CL/F was 2.46 ± 1 L/h/kg. Also, the half-life in data set [2] (read-out: Half-Life T½ (converted)) is 2.3 ± 0.76 h. Also, the mean residence time MRT in data set [2] (read-out: Mean Residence Time MRT) turned out to be 6.3 ± 1.62 h. The Cmax in data set [2] (read-out: Plasma Conc. Cmax) was 0.263 ± 0.066 µg/mL.

Usually IC50 stands for the midpoint of a concentration-inhibition curve. High values mean lower potency, low ones higher potency. One may read the AUC as concentration integrated over time. The half-life is the time needed for the level to fall by half in the phase considered. Broadly, the MRT is the average time that molecules of a dose stay in the body. A word on the Cmax: it is the peak of the concentration-time curve.
